Laboratory results: PubChem BioAssay (NCI)
Where “and” joins values, the source holds several entries; their conditions need not be identical. Equal values may be shown once.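 Method: 48-hour compound exposure of cells in 96-well plates, five concentrations, linear interpolation of endpoints. Abbreviation: GI50, concentration required for 50% inhibition of growth. The concentration for full growth arrest is given as TGI.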

Tests used:
Assay in all cases: DTP human tumour cell line panel, 48 h
NCI-H522 lung = system: NCI-H522 lung
HCC-2998 colon = system: HCC-2998 colon
T-47D breast = system: T-47D breast
NCI-H460 lung = system: NCI-H460 lung
OVCAR-8 ovarian = system: OVCAR-8 ovarian
HCT-116 colon = system: HCT-116 colon
SNB-75 CNS = system: SNB-75 CNS
RXF 393 renal = system: RXF 393 renal
OVCAR-3 ovarian = system: OVCAR-3 ovarian
MALME-3M melanoma = system: MALME-3M melanoma

| SMILES | GI50 (NCI-H522 lung) [µM] | TGI (NCI-H522 lung) [µM] | GI50 (HCC-2998 colon) [µM] | TGI (HCC-2998 colon) [µM] | GI50 (T-47D breast) [µM] | TGI (T-47D breast) [µM] | GI50 (NCI-H460 lung) [µM] | TGI (NCI-H460 lung) [µM] | GI50 (OVCAR-8 ovarian) [µM] | TGI (OVCAR-8 ovarian) [µM] | GI50 (HCT-116 colon) [µM] | TGI (HCT-116 colon) [µM] | TGI (SNB-75 CNS) [µM] | TGI (RXF 393 renal) [µM] | TGI (OVCAR-3 ovarian) [µM] | TGI (MALME-3M melanoma) [µM] | GI50 (SNB-75 CNS) | GI50 (MALME-3M melanoma) [µM] | GI50 (OVCAR-3 ovarian) [µM] |
| --- | --- | --- | --- | --- | --- | --- | --- | --- | --- | --- | --- | --- | --- | --- | --- | --- | --- | --- | --- |
| C=C(C)C1CC/C(C)=C/CC[C@]2(C)O[C@@H]2CCC2=CC1OC2=O (stereo partly specified) | > 100 | > 100 | 80 | > 100 | 18.5 | > 100 | > 100 | > 100 | > 100 | > 100 | 27.6 | > 100 | – | – | – | – | – | – | – |
| CO[C@H]1O[C@@H]2CO[C@@H](c3ccccc3)O[C@H]2[C@@H]2C/C=C\CCC[C@@]12O | – | 43.4 | – | 26.4 | – | > 100 | – | 33 | – | > 100 | – | 30.9 | > 100 | 33.2 | 30.5 | – | – | – | – |
| C=C1[C@@](C)([C@@H]2CCCS2)[C@H]2C(C)=C[C@]1(C)n1c(=O)n(-c3ccccc3)c(=O)n12 | – | > 100 | – | > 100 | – | > 100 | – | > 100 | – | – | – | > 100 | > 100 | – | > 100 | > 100 | – | – | – |
| O=C1CC(C(OCc2ccccc2)C(OCc2ccccc2)C(COCc2ccccc2)OCc2ccccc2)CC(=O)N1 (stereo unspecified) | – | – | – | > 100 | – | 65.6 | – | > 100 | – | > 100 | – | > 100 | > 100 | > 100 | – | > 100 | 29.7 µM and > 75 µM | – | – |
| CCCC1C(=O)Nc2cccc3ncn(c23)C1=O (stereo unspecified) | – | – | – | – | – | > 100 | – | > 100 | – | > 100 | – | > 100 | > 100 | > 100 | > 100 | > 100 | – | – | – |
| O=C(O)CC[P+](c1ccccc1)(c1ccccc1)c1ccccc1 | – | > 100 | – | > 100 | – | > 100 | – | – | – | > 100 | – | > 100 | > 100 | > 100 | 56.5 | > 100 | – | – | – |
| CN(C)c1ccc(/C=C/C(=O)N[C@@H]2C(=O)N3[C@@H]2SC(C)(C)[C@@H]3C(=O)O)cc1 | – | > 100 | – | > 100 | – | > 100 | – | > 100 | – | > 100 | – | > 100 | > 100 | > 100 | > 100 | – | – | – | – |
| COC(=O)[C@@](C)(COC(=O)C(C)(C)C)NC(=O)OC(C)(C)C | – | > 100 | – | > 100 | – | > 100 | – | > 100 | – | > 100 | – | > 100 | > 100 | > 100 | – | > 100 | – | – | – |
| COc1ccc(/C=C/C(=O)c2ccc(-n3cc(CN4CCN(c5cc6c(cc5F)c(=O)c(C(=O)O)cn6C5CC5)CC4)nn3)cc2)cc1OC | 4.25 | > 100 | – | – | 3.16 | > 100 | 2.4 | 6.66 | 4.03 | > 100 | – | – | 4.29 | – | 4.93 | 8.41 | 1.49 µM | 2.59 | 1.84 |
| O=[N+]([O-])c1ccc2oc(=Nc3ccccc3)c(Nc3ccccc3)nc2c1 | – | 67.2 | – | > 100 | – | > 100 | – | > 100 | – | > 100 | – | > 100 | 79.6 | > 100 | – | > 100 | – | – | – |
